# Read-outs that look alike come from different tables or passages of the source.
# Key:
# [1] = target: Ba/F3-FGFR3-transfected cells (Homo sapiens, UniProt P22607); assay: Ba/F3-FGFR3 (minus IL3) cellular proliferation assay, Alamar Blue; type: cell-based; details: for BAF3-FGFR 3 (MIN IL3) 384 well pIC50: minus IL3, 384 well; for BAF3-FGFR 3 (MIN IL3) 96 well pIC50: minus IL3, 96 well
# Procedure: Ba/F3-FGFR3 (Minus IL3 or Plus IL3) (Cellular Proliferation Assay)
# Cells were put in an incubator at 37° C. and 5% CO2. After 24 hours, 10 μl of Alamar Blue solution (0.5 mM K3Fe(CN)6, 0.5 mM KaFe(CN)6, 0.15 mM Resazurin and 100 mM Phosphate Buffer) was added to the wells, incubated for 4 hours at 37° C. and 5% CO2 before RFU's (Relative Fluorescence Units) (ex. 540 nm., em. 590 nm.) were measured in a flurorescence plate reader. […]
# (§1) In a 96 well plate, 180 μl cell culture medium (phenol red free RPMI-1640, 10% FBS, 2 mM L-Glutamine and 50 μg/ml Gentamycin) containing 10000 cells per well of Ba/F3-FGFR3-transfected cells were pipette and 20 μl of compound dilution in DMSO was added. Cells were put in an incubator at 37° C. and 5% CO2. After 24 hours, 40 μl of Alamar Blue solution (0.5 mM K3Fe(CN)6, 0.5 mM KaFe(CN)6, 0.15 mM Resazurin and 100 mM Phosphate Buffer) was added to the wells, incubated for 4 hours at 37° C. and 5% CO2 before RFU's (Relative Fluorescence Units) (ex. 540 nm., em. 590 nm.) were measured in a flurorescence plate reader.
# KDR (h) (VEGFR2) = KDR (h) (VEGFR2) (Homo sapiens, UniProt P35968); assay: KDR (VEGFR2) (enzymatic assay), TR-FRET; type: biochemical
# Procedure: KDR (VEGFR2) (Enzymatic Assay)
# In a final reaction volume of 30 μL, KDR (h) (150 ng/ml) was incubated with 50 mM HEPES pH 7.5, 6 mM MnCl2, 1 mM DTT, 0.1 mM Na3VO4, 0.01% Triton-X-100, 500 nM Btn-Flt3 and 3 μM ATP in the presence of compound (1% DMSO final). After incubation for 120 minutes at room temperature the reaction was stopped with 2.27 nM EU-anti P-Tyr, 7 mM EDTA, 31.25 nM SA-XL-665 and 0.02% BSA which was present for 60 minutes at room temperature. Time-Resolved Fluorescence Resonance Energy Transfer (TR-FRET) signal (ex340 nm. Em 620 nm, em 655 nm) was measured afterwards and results are expressed in RFU (Relative Fluorescence Units).
# FGFR3 (h) = FGFR3 (h) (Homo sapiens, UniProt P22607); assay: FGFR3 (enzymatic assay), TR-FRET; type: biochemical; details: read-out: FGFR 3 pIC50 (converted)
# Procedure: (§2) In a final reaction volume of 30 μL, FGFR3 (h) (40 ng/ml) was incubated with 50 mM HEPES pH 7.5, 6 mM MnCl2, 1 mM DTT, 0.1 mM Na3VO4, 0.01% Triton-X-100, 500 nM Btn-Flt3 and 25 μM ATP in the presence of compound (1% DMSO final). […] Time-Resolved Fluorescence Resonance Energy Transfer (TR-FRET) signal (ex340 nm. Em 620 nm, em 655 nm) was measured afterwards and results are expressed in RFU (Relative Fluorescence Units).
# [2] = system: Ba/F3-Flt3-transfected cells in the presence of 10 ng/ml murine IL3; assay: Ba/F3-Flt3 (plus IL3) cellular proliferation counterscreen, Alamar Blue; type: cell-based; details: for IC50: Mus musculus, read-out: BAF3-FLT3 (PLUS IL3) 384 well pIC50 (converted)
# Procedure: Ba/F3-Flt3 (Minus IL3 or Plus IL3) (Cellular Proliferation Assay)
# as §1, with “a 384” for “a 96”, “plate, 100 nl of compound dilution in DMSO was sprayed before adding 50” for “plate, 180”, “containing 20000” for “containing 10000”, “of Ba/F3-Flt3-transfected cells.” for “of Ba/F3-FGFR3-transfected cells were pipette and 20 μl of compound dilution in DMSO was added.”, “hours, 10” for “hours, 40”
# As a counterscreen the same experiment was performed in the presence of 10 ng/ml murine IL3.
# as §1, with “Ba/F3-Flt3-transfected” for “Ba/F3-FGFR3-transfected”
# FGFR2 (h) = FGFR2 (h) (Homo sapiens, UniProt P21802); assay: FGFR2 (enzymatic assay), TR-FRET; type: biochemical; details: read-out: FGFR 2 pIC50 (converted)
# Procedure: as §2, with “FGFR2” for “FGFR3”, “(150” for “(40”, “0.4” for “25”, “in” for “in RFU”
# FGFR2 (h), sequence (P21802 22-821): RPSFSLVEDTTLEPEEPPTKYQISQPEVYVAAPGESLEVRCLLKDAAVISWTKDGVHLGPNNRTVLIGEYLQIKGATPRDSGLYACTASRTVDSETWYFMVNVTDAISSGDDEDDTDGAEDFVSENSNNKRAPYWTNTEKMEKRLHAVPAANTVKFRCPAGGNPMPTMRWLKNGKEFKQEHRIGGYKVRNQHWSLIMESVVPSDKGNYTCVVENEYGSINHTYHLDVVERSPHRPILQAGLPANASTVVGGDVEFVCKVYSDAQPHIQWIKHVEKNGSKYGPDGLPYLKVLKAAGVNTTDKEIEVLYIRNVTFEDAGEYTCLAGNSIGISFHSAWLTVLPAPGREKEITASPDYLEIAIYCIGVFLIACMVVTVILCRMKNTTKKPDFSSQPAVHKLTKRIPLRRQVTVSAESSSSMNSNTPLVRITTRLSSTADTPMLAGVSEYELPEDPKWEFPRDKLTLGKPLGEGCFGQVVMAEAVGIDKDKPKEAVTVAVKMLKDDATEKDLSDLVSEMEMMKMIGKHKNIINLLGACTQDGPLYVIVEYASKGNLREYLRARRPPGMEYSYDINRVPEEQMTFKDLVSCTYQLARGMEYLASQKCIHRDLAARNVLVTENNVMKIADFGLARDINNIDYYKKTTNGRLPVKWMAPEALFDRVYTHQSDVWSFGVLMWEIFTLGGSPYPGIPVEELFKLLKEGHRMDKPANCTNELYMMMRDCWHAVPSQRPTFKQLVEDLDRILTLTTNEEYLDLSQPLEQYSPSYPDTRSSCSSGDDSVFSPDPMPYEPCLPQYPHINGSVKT
# KDR (h) (VEGFR2), sequence (P35968 20-1356): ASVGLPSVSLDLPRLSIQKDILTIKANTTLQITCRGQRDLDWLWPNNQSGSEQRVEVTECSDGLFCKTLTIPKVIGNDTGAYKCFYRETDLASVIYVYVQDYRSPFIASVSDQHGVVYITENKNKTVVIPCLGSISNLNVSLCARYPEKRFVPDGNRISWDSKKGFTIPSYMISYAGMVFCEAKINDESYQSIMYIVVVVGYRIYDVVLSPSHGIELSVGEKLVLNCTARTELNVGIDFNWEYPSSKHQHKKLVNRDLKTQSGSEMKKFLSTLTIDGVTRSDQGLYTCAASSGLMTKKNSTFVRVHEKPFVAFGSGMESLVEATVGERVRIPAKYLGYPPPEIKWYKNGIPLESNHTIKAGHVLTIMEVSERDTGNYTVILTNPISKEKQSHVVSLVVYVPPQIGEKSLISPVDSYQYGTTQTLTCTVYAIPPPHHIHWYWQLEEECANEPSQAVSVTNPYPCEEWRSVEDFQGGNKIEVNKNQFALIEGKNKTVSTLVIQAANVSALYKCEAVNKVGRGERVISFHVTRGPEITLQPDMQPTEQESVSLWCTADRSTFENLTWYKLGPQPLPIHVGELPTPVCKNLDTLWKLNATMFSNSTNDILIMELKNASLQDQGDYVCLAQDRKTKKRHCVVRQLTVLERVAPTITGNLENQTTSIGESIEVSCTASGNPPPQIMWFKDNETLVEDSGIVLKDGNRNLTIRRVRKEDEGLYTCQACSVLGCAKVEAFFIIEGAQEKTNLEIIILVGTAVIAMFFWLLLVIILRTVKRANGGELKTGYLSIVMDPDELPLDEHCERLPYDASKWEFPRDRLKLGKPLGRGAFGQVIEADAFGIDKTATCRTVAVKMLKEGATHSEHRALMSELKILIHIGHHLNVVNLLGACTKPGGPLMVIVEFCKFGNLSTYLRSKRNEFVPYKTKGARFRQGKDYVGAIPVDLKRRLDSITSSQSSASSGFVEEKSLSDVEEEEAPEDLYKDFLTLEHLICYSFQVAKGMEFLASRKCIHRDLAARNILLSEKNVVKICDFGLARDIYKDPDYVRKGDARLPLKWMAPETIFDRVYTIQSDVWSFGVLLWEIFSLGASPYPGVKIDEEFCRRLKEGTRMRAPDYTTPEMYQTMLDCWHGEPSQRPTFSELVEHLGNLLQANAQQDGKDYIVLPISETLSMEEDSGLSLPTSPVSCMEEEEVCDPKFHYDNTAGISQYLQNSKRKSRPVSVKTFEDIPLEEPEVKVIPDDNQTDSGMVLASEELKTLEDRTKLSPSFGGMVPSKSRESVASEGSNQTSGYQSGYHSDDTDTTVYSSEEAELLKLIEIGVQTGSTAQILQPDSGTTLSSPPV
# FGFR3 (h), sequence (P22607 23-806): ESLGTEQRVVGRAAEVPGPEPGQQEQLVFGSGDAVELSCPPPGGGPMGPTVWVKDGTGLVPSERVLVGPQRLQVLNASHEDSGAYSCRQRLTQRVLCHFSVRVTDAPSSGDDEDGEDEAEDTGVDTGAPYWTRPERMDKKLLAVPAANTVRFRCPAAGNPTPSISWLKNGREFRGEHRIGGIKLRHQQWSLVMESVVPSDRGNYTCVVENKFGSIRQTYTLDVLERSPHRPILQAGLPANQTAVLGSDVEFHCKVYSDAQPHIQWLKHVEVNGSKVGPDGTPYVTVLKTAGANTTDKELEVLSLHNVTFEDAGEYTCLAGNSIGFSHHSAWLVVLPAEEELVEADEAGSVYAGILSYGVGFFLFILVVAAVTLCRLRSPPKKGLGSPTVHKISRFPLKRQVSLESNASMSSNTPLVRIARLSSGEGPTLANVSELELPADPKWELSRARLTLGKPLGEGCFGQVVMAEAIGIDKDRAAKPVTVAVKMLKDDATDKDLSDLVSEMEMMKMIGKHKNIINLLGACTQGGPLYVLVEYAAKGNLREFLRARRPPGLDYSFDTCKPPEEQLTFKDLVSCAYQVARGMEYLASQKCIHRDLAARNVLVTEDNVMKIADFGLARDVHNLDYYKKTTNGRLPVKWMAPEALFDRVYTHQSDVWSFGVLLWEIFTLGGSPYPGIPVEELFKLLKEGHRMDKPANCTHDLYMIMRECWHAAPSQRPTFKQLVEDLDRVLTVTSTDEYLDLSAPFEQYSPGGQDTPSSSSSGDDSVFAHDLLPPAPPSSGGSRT
# Ba/F3-FGFR3-transfected cells, sequence (P22607 whole entry, change not shown): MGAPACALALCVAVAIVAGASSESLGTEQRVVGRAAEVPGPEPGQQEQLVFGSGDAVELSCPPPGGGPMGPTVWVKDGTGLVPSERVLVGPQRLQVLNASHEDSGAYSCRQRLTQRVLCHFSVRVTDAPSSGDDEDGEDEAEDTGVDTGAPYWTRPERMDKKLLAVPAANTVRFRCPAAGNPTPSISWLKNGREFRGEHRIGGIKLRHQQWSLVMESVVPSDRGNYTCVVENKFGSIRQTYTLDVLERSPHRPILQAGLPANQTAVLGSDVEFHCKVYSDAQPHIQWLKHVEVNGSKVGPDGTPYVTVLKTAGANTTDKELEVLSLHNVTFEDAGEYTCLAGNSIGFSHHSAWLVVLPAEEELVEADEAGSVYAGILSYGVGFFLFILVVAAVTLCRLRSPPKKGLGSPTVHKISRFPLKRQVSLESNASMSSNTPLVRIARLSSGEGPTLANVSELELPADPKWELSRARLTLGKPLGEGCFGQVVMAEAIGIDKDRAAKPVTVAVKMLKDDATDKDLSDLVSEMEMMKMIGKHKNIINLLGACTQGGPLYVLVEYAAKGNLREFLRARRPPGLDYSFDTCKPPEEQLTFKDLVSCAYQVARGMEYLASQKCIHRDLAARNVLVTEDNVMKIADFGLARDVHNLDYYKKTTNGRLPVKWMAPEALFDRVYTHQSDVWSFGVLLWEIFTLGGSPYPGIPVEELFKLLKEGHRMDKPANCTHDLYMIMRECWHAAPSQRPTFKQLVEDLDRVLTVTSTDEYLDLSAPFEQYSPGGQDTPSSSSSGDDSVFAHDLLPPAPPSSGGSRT
Structure (SMILES),BAF3-FGFR 3 (MIN IL3) 384 well pIC50 [1],IC50 (KDR (h) (VEGFR2)) [nM],IC50 (FGFR3 (h)) [nM],IC50 (FGFR2 (h)) [nM],melting point [°C],BAF3-FGFR 3 (MIN IL3) 96 well pIC50 [1],IC50 ([2]; plus 10 ng/ml murine IL3) [nM],BAF3-FLT3 (PLUS IL3) 384 well pIC50 ([2]; plus 10 ng/ml murine IL3),"IC50 ([2]; plus IL3, 384 well) [nM]"
"COCC(O)CN(c1cc(OC)cc(OC)c1)c1ccc2ncc(-c3cccnc3)nc2c1 (single isomer, unassigned) [Compound 46]",6.65,295,7.24,12,154,–,> 10000,–,–
COc1cc(OC)cc(N(CC#Cc2ncccn2)c2ccc3ncc(-c4cccnc4)nc3c2)c1 [Compound 2],7.13,> 1000,56.2,34.7,184,–,> 10000,–,–
COc1cc(OC)cc(N(CCO)c2ccc3ncc(-c4ccc(N5CCOCC5)nc4)nc3c2)c1 [Compound 19],6.17,170,1.95,10.7,193,–,> 10000,–,–
COc1cc(OC)cc(N(CC2CC2)c2ccc3ncc(C#Cc4cncn4C)nc3c2)c1 [Compound 22],<5.52,1660,34.7,95.5,166,5.04,–,–,> 10000
COc1cc(OC)cc(N(CCCNCC(F)(F)F)c2ccc3ncc(-c4cnc(OC)nc4)nc3c2)c1 [Compound 26],<5,> 1000,100,138,96,–,> 10000,–,–
COc1cc(OC)cc(N(CCN2CCOCC2)c2ccc3ncc(-c4ccc(NC(=O)N5CCOCC5)nc4)nc3c2)c1 [Compound 35],6.19,229,10,26.3,153,–,> 10000,–,–
COc1cc(OC)cc(N(CCNC(C)C)c2ccc3ncc(-c4ccnc(C(=O)NCCCN)c4)nc3c2)c1 [Compound 146],6.41,269,12.3,8.13,–,–,> 10000,–,–
COc1cc(OC)cc(N(CCNC(C)C)c2ccc3ncc(NCC4CCNCC4)nc3c2)c1 [Compound 161],5.38,617,44.7,14.1,–,–,> 10000,–,–
COc1cc(OC)cc(N(CCNC(C)C)c2ccc3ncc(-c4ccc(N5CCN(C)CC5)nc4)nc3c2)c1 [Compound 170],6.16,135,6.17,3.98,–,–,5010,–,–
COc1cc(OC)cc(N(CCNC(C)C)c2ccc3ncc(C(=O)N4CCN(C)CC4)nc3c2)c1 [Compound 179],5.19,77.6,380,427,–,–,> 10000,–,–
COc1cc(OC)cc(N(CCNC(C)C)c2ccc3ncc(C(=O)N4CCOCC4)nc3c2)c1 [Compound 181],5.16,> 1000,501,490,–,–,> 10000,–,–
COc1cc(OC)cc(N(CCO)c2ccc3ncc(C4CCN(C(=O)OC(C)(C)C)CC4)nc3c2)c1 [Compound 185],5.01,> 1000,110,214,–,–,> 10000,–,–
COc1cc(OC)cc(N(CCCO)c2ccc3ncc(-c4ccnc(C(=O)NCCOCCO)c4)nc3c2)c1 [Compound 186],5.8,871,16.2,36.3,–,–,> 10000,–,–

# More lines, main results first:
BAF3-FGFR 3 (MIN IL3) 384 well pIC50 [1],IC50 (KDR (h) (VEGFR2)) [nM],IC50 (FGFR3 (h)) [nM],IC50 (FGFR2 (h)) [nM],melting point [°C],BAF3-FGFR 3 (MIN IL3) 96 well pIC50 [1],Structure (SMILES),IC50 ([2]; plus 10 ng/ml murine IL3) [nM],BAF3-FLT3 (PLUS IL3) 384 well pIC50 ([2]; plus 10 ng/ml murine IL3),"IC50 ([2]; plus IL3, 384 well) [nM]"
6.3,339,22.4,17.4,153,–,"COCC(O)CN(c1cc(OC)cc(OC)c1)c1ccc2ncc(-c3cccnc3)nc2c1 (single isomer, unassigned) [Compound 47]",–,<5,–
<5,> 10000,2630,~4170,180,<5,COc1cc(OC)cc(N(CC2CC2)c2ccc3ncc(C(=O)Nc4cncn4C)nc3c2)c1 [Compound 27],> 10000,–,–
<5,> 10000,1200,6170,135,<5,COc1cc(OC)cc(N(CC2CC2)c2ccc3ncc(NC(=O)c4ccc(F)cc4)nc3c2)c1 [Compound 28],> 10000,–,–
5.5,> 1000,38.9,115,149,–,CO/N=C(\C)c1cnc2ccc(N(CCO)c3cc(OC)cc(OC)c3)cc2n1 [Compound 29],> 10000,–,–
<5,> 1000,537,661,–,–,COc1cc(OC)cc(N(CCCNCC(F)(F)F)c2ccc3ncc(C(=O)NCCN4CCOCC4)nc3c2)c1 [Compound 158],> 10000,–,–
5.82,> 1000,155,66.1,–,–,COc1cc(OC)cc(N(CCNC(C)C)c2ccc3ncc(C(=O)NCCCN4CCN(C)CC4)nc3c2)c1 [Compound 159],> 10000,–,–
5.36,> 1000,87.1,145,–,–,COC(=O)C1CCCN1c1cnc2ccc(N(CCO)c3cc(OC)cc(OC)c3)cc2n1 (stereo not shown) [Compound 172],> 10000,–,–
5.28,191,263,302,–,–,COc1cc(OC)cc(N(CCNC(C)C)c2ccc3ncc(C(=O)N4CCCCC4)nc3c2)c1 [Compound 180],> 10000,–,–

# From US10052320B2, “Substituted quinoxalines as FGFR kinase inhibitors” (ASTEX THERAPEUTICS LIMITED, priority 2011, dated 2018)
